Molecular target: T1, hTAS1R1 S172A/rTAS1R3 (UniProt Q7RTX1+Q923K1, S172A)
T1 construct: UniProtKB number Q7RTX1–1); The cDNA coding region of rTAS1R3 was synthesized with optimized-codon usage for human expression; expressed in transfected cells; host or cells: HEK293T/17
T1 sequence (Q7RTX1 21-841 S172A): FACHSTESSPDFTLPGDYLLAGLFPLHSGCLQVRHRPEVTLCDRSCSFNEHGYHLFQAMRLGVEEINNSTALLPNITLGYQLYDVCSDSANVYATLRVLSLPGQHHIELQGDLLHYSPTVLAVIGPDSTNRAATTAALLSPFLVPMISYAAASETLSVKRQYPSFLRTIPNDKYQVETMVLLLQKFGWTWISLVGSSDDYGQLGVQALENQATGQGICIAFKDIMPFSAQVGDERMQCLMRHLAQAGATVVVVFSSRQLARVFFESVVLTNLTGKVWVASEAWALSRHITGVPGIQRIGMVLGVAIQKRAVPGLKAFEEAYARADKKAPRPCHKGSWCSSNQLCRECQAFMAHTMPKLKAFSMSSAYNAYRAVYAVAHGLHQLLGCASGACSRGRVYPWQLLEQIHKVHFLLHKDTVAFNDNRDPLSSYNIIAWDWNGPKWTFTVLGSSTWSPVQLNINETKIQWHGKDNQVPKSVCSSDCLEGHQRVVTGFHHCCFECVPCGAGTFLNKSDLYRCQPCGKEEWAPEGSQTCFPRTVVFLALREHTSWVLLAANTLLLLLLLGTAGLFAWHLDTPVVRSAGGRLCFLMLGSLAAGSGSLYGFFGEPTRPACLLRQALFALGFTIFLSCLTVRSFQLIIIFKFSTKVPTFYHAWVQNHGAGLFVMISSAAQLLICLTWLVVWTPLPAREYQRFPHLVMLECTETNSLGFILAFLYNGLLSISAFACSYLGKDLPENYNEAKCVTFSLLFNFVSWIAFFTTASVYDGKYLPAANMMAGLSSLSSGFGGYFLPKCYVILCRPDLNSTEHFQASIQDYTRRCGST
T1 sequence (Q923K1 21-858): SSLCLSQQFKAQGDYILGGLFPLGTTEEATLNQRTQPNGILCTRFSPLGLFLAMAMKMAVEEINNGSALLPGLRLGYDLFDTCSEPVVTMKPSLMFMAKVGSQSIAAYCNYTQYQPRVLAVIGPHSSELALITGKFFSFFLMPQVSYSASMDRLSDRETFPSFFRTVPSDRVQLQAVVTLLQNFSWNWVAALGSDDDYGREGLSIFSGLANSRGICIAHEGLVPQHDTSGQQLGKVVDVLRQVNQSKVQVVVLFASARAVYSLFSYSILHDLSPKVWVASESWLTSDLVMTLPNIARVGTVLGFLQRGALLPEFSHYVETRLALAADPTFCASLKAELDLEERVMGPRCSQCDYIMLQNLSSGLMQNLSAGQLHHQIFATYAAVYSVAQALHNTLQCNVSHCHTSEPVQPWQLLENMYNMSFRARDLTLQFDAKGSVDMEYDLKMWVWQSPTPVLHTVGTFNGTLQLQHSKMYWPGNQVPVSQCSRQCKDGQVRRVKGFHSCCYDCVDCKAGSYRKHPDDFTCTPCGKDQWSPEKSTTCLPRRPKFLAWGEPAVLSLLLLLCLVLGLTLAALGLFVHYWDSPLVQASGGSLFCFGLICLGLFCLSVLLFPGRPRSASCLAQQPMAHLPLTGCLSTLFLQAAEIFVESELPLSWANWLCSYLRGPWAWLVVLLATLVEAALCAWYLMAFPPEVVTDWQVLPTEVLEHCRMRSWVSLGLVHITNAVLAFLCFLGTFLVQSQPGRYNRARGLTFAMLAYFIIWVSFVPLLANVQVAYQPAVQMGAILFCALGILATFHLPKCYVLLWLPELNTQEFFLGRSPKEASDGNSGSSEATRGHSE
Experiment: Calcium assay, hTAS1R1 mutant co-expressed with rTAS1R3
Type: cell-based, human, rat
Details: for response to the agonist alone, vs WT: S172A
Description: Chimeric Gα proteins, such as Gα16Gust44, Gα16Gi3 or Gα15i2, are widely used in the functional expression of TAS1R receptors ([Backes et al., 2015]; [Suess et al., 2015]; [Toda et al., 2021], [Toda et al., 2013], [Toda et al., 2018]; [Zhang et al., 2008]). Chimeric Gα15i2 (([Toda et al., 2013]), Supplementary data) was generated by replacing the last five residues of the C-terminal tail of rat Gα15i2 (EINLL) (UniProt number G3V6N8; https://www.uniprot.org/uniprot/) with the counterpart sequence from human GNAI2 (DCGLF) (UniProt number P04899-1) and cloning into the pcDNA3.1/Hygro vector (Invitrogen, Thermo Fisher Scientific, Illkirch, France) between the HindIII and NotI restriction sites, resulting in the plasmid pcDNA3.1-Gα15i2. Chimeric Gα16Gust44 construct have already been reported ([Raliou et al., 2011]). Briefly, Gα16Gust44 was generated by replacing the C-terminal of Gα16 with the C-terminal 44 residues of gustducin. As previously described, hTAS1R1 was amplified from human fungiform papillae cDNA and cloned and inserted into pcDNA3 (Invitrogen), generating pcDNA3-TAS1R1-WT (wild-type) ([Raliou et al., 2011]). […] The cDNA coding region of rTAS1R3 was synthesized with optimized-codon usage for human expression (Genewiz) and was cloned and inserted into the mammalian pcDNA4/myc-HisA (Invitrogen) expression vector between the EcoRI and NotI restriction sites, resulting in the plasmid pcDNA4-rTAS1R3. […] The sequence integrity of all the plasmid constructs was verified via automated DNA sequencing (Genewiz).
The hTAS1R1 mutants were co-expressed with the rTAS1R3 subunit in HEK293 cells. […] As a control, the functionality of the mutated receptors was checked after stimulation with S807 (Fig. S8), which interacts with TAS1R1-TMD ([Zhang et al., 2008]).

| Structure (SMILES) | EC50 [mM] | response to the agonist alone, vs WT |
| --- | --- | --- |
| N[C@@H](CCC(=O)N[C@@H](CS)C(=O)NCC(=O)O)C(=O)O [GSH, γ-L-glutamyl-L-cysteinyl-glycine] | > 30 | fully abolished |
| N[C@@H](CCC(=O)O)C(=O)O [L-Glu, L-glutamic acid, reference compound] | – | completely suppressed |
| CCCC(CCC)NC(=O)c1ccc2c(c1)OCO2 [S807, N-(heptan-4-yl)benzo[d][1,3]dioxole-5-carboxamide, reference compound] | – | strongly affected |

— PMC12615753, “Glutathione as a taste modulator: molecular mechanisms of interaction with umami and sweet taste receptors” (Food Chemistry: Molecular Sciences, 2025)
